# Laboratory results taken from patent US20220296521A1, “CARRIER-BASED FORMULATIONS AND RELATED METHODS” (Respira Therapeutics, Inc., priority 2019, published 2022).
# Experiment: Tapped density of bulk powder
# Type: physicochemical
# Protocol: “Tapped densities” or ρtapped as used herein were measured in a fashion similar to Method I, as described in USP <616> Bulk Density and Tapped Density of Powders. Tapped densities represent a closer approximation to particle density than poured bulk densities, with measured values that are approximately 20% less than the actual particle density.
# Tapped density was determined using a cylindrical cavity of known volume (0.593 cm^3). Powder was filled into this sample holder using a microspatula. The sample cell was then gently tapped on a countertop. As the sample volume decreased, more powder was added to the cell. The tapping and addition of powder steps were repeated until the cavity was filled and the powder bed no longer consolidated with further tapping. The tapped density is defined as the mass of this tapped bed of powder divided by the volume of the cavity.
smiles,measurement,value
"CC(C)C(=O)OCC(=O)[C@@]12O[C@H](C3CCCCC3)O[C@@H]1C[C@H]1[C@@H]3CCC4=CC(=O)C=C[C@]4(C)[C@H]3[C@@H](O)C[C@@]12C [Cic-A, ciclesonide]",Tapped density,0.17 g/mL
"CC(C)C(=O)OCC(=O)[C@@]12O[C@H](C3CCCCC3)O[C@@H]1C[C@H]1[C@@H]3CCC4=CC(=O)C=C[C@]4(C)[C@H]3[C@@H](O)C[C@@]12C [Cic-B, ciclesonide]",Tapped density,0.16 g/mL
